# PubChem BioAssay AID330 (DTP/NCI, 2004)
# “And” between values parts separate entries of the source, which are not always exact repeats. Identical values can stand only once. Toxic doses and inconclusive results are not listed.
# Test system: P388 leukemia ip, CD2F1 mice, survival T/C
# Assay: NCI In Vivo Anticancer Drug Screen. Data for tumor model P388 Leukemia (intraperitoneal) in CD2F1 (CDF1) mice
# Settings: endpoint: median survival time, higher = longer survival
# How it was run: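 Mice carrying the transplanted tumor received test compound or vehicle. Survival was recorded in each group, and the value is the treated-group measurement divided by that of the vehicle-treated control group.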
# [1] = dose: 50.0 mg/kg/injection, schedule: Q01DX009 (ip), vehicle: saline
# [2] = dose: 100.0 mg/kg/injection, schedule: Q01DX009 (ip), vehicle: saline
# [3] = dose: 200.0 mg/kg/injection, schedule: Q01DX009 (ip), vehicle: saline
# [4] = dose: 400.0 mg/kg/injection, schedule: Q01DX009 (ip), vehicle: saline
# [5] = dose: 50.0 mg/kg/injection, schedule: Q01DX005 (ip), vehicle: Klucel (hydroxypropylcellulose) (HPC)
# [6] = dose: 100.0 mg/kg/injection, schedule: Q01DX005 (ip), vehicle: Klucel (hydroxypropylcellulose) (HPC)
# [7] = dose: 25.0 mg/kg/injection, schedule: Q01DX009 (ip), vehicle: Klucel (hydroxypropylcellulose) (HPC)
# [8] = dose: 50.0 mg/kg/injection, schedule: Q01DX009 (ip), vehicle: Klucel (hydroxypropylcellulose) (HPC)
# [9] = dose: 100.0 mg/kg/injection, schedule: Q01DX009 (ip), vehicle: Klucel (hydroxypropylcellulose) (HPC)
# [10] = dose: 12.5 mg/kg/injection, schedule: Q01DX009 (ip), vehicle: Klucel (hydroxypropylcellulose) (HPC)
# [11] = dose: 60.0 mg/kg/injection, schedule: Q01DX005 (ip), vehicle: saline
# [12] = dose: 120.0 mg/kg/injection, schedule: Q01DX005 (ip), vehicle: saline
# [13] = dose: 60.0 mg/kg/injection, schedule: Q01DX005 (ip), vehicle: Klucel (hydroxypropylcellulose) (HPC)
# [14] = dose: 120.0 mg/kg/injection, schedule: Q01DX005 (ip), vehicle: Klucel (hydroxypropylcellulose) (HPC)
# [15] = dose: 240.0 mg/kg/injection, schedule: Q01DX005 (ip), vehicle: Klucel (hydroxypropylcellulose) (HPC)
smiles,measurement,setting,value
Cc1ccc(Nc2ccc3c4c(cc(=O)n3C)-c3ccccc3C(=O)c24)c(S(=O)(=O)O)c1,T/C,[1],87 % of control
same,T/C,[2],91 % of control
same,T/C,[3],99 % of control
same,T/C,[4],95 % of control
O=C(Nc1ccc(C2=NCC(O)CN2)cc1)c1ccc(C(=O)Nc2ccc(C3=NCC(O)CN3)cc2)cc1 (stereo not drawn),T/C,"dose: 1.56 mg/kg/injection, schedule: Q01DX005 (ip), vehicle: saline with Tween-80",122 % of control
same,T/C,"dose: 6.25 mg/kg/injection, schedule: Q01DX005 (ip), vehicle: saline with Tween-80",155 % of control
CNc1nc2c(C)ccc3[nH]c(N(C)C)nc3c-2n1,T/C,"dose: 25.0 mg/kg/injection, schedule: Q01DX005 (ip), vehicle: Klucel (hydroxypropylcellulose) (HPC)",100 % of control
same,T/C,[5],99 % of control
same,T/C,[6],91 % of control
O=C(Nc1nccs1)Nc1cc(C(F)(F)F)ccc1Cl,T/C,[7],102 % of control
same,T/C,[8],108 % of control
same,T/C,[9],97 % of control
c1ccc(C2CN3CCSC3=N2)cc1 (stereo not drawn),T/C,"dose: 3.13 mg/kg/injection, schedule: Q01DX009 (ip), vehicle: saline with Tween-80",98 % of control
same,T/C,"dose: 3.75 mg/kg/injection, schedule: Q01DX005 (ip), vehicle: saline",101 % of control
same,T/C,"dose: 6.25 mg/kg/injection, schedule: Q01DX009 (ip), vehicle: saline with Tween-80",100 % of control
same,T/C,"dose: 7.5 mg/kg/injection, schedule: Q01DX005 (ip), vehicle: saline",100 % of control
same,T/C,"dose: 12.5 mg/kg/injection, schedule: Q01DX009 (ip), vehicle: saline with Tween-80",98 % of control
same,T/C,"dose: 15.0 mg/kg/injection, schedule: Q01DX005 (ip), vehicle: saline",99 % of control
same,T/C,"dose: 25.0 mg/kg/injection, schedule: Q01DX009 (ip), vehicle: saline with Tween-80",103 % of control
CCOC(=O)C(=O)C(C#N)c1ccccc1CC#N (stereo not drawn),T/C,"dose: 50.0 mg/kg/injection, schedule: Q01DX005 (ip), vehicle: saline with Tween-80",109 % of control
same,T/C,"dose: 100.0 mg/kg/injection, schedule: Q01DX005 (ip), vehicle: saline with Tween-80",97 % of control
O=C(OCCN1CCN(CCCN2c3ccccc3Sc3ccc(C(F)(F)F)cc32)CC1)C12CC3CC(CC(C3)C1)C2,T/C,"dose: 3.12 mg/kg/injection, schedule: Q01DX009 (ip), vehicle: Klucel (hydroxypropylcellulose) (HPC)",105 % of control
same,T/C,"dose: 6.25 mg/kg/injection, schedule: Q01DX009 (ip), vehicle: Klucel (hydroxypropylcellulose) (HPC)",103 % of control and 96 % of control
same,T/C,[10],110 % of control and 112 % of control and 97 % of control
same,T/C,[7],112 % of control
same,T/C,[8],113 % of control
same,T/C,[9],118 % of control
CC(=O)/C(=C\c1ccco1)C(=O)CCN(C)C,T/C,[11],108 % of control and 109 % of control and 115 % of control
same,T/C,[12],106 % of control and 118 % of control and 120 % of control
same,T/C,"dose: 240.0 mg/kg/injection, schedule: Q01DX005 (ip), vehicle: saline",108 % of control and 115 % of control
same,T/C,"dose: 480.0 mg/kg/injection, schedule: Q01DX005 (ip), vehicle: saline",101 % of control
COc1cc(O)c(Cc2ccc3c(c2)OCO3)cc1O,T/C,"dose: 2.5 mg/kg/injection, schedule: Q01DX009 (ip), vehicle: saline with Tween-80",100 % of control
same,T/C,"dose: 5.0 mg/kg/injection, schedule: Q01DX009 (ip), vehicle: saline with Tween-80",100 % of control
same,T/C,"dose: 10.0 mg/kg/injection, schedule: Q01DX009 (ip), vehicle: saline with Tween-80",115 % of control
O=C(ON1C(=O)CCC1=O)C1CCC(CN2C(=O)C=CC2=O)CC1 (stereo not drawn),T/C,"dose: 100.0 mg/kg/injection, schedule: Q04DX002 (ip), vehicle: saline with Tween-80",120 % of control
Cn1nc(C(N)=O)c2c(N)ncnc21,T/C,"dose: 0.94 mg/kg/injection, schedule: Q01DX005 (ip), vehicle: saline with Tween-80",105 % of control
same,T/C,"dose: 1.88 mg/kg/injection, schedule: Q01DX005 (ip), vehicle: saline with Tween-80",92 % of control
same,T/C,"dose: 3.75 mg/kg/injection, schedule: Q01DX005 (ip), vehicle: saline with Tween-80",104 % of control
same,T/C,"dose: 7.5 mg/kg/injection, schedule: Q01DX005 (ip), vehicle: saline with Tween-80",91 % of control
CC(=O)SCC1C(=O)CC(C)(C)CC1=O,T/C,"dose: 200.0 mg/kg/injection, schedule: Q04DX003 (ip), vehicle: Klucel (hydroxypropylcellulose) (HPC)",89 % of control
COC1(OC)C(C#N)=C(c2ccccc2)C1(OC)OC,T/C,[13],115 % of control
same,T/C,[14],102 % of control
same,T/C,[15],101 % of control
O=P(N1CCCC1)(N1CCCC1)N1CCCC1,T/C,[1],100 % of control
same,T/C,[2],102 % of control and 107 % of control
same,T/C,[3],101 % of control
same,T/C,[4],103 % of control
c1ccc2c(c1)[nH]c1c3ccccc3sc21,T/C,[13],106 % of control
same,T/C,[14],107 % of control
same,T/C,[15],105 % of control
O=C(O)CNC(=O)C(CN1CC(=O)OC1c1ccc([N+](=O)[O-])cc1)N1C(=O)c2ccccc2C1=O (stereo not drawn),T/C,"dose: 25.0 mg/kg/injection, schedule: Q04DX003 (ip), vehicle: saline with Tween-80",100 % of control
same,T/C,"dose: 50.0 mg/kg/injection, schedule: Q04DX003 (ip), vehicle: saline with Tween-80",100 % of control
O=C(OCCO)c1c(Cl)c(Cl)c(Cl)c(Cl)c1-c1c2cc(Br)c(=O)c(Br)c-2oc2c(Br)c(O)c(Br)cc12,T/C,[11],94 % of control
same,T/C,[12],92 % of control
CC(=O)C(CCCn1c(=O)c2c(ncn2C)n(C)c1=O)CCCn1c(=O)c2c(ncn2C)n(C)c1=O,T/C,[13],102 % of control
same,T/C,[14],99 % of control
same,T/C,[15],104 % of control
CC/C(=C(/CC)c1ccc(OCC(=O)N/N=C2/C=C3CCC4C(CCC5(C)C(O)CCC45)C3(C)CC2)cc1)c1ccc(OCC(=O)N/N=C2\C=C3CCC4C(CCC5(C)C(O)CCC45)C3(C)CC2)cc1 (stereo not drawn),T/C,"dose: 50.0 mg/kg/injection, schedule: Q01DX001 (ip), vehicle: Klucel (hydroxypropylcellulose) (HPC)",95 % of control
same,T/C,"dose: 100.0 mg/kg/injection, schedule: Q01DX001 (ip), vehicle: Klucel (hydroxypropylcellulose) (HPC)",87 % of control
O=c1c2ccccc2c(=O)c2c1cc(Cl)c1[nH]c3c([nH]c12)c(Cl)cc1c(=O)c2ccccc2c(=O)c13,T/C,[5],97 % of control
same,T/C,[6],96 % of control
same,T/C,"dose: 200.0 mg/kg/injection, schedule: Q01DX005 (ip), vehicle: Klucel (hydroxypropylcellulose) (HPC)",94 % of control
CC(=O)C(=N/O)/C(C)=N/NC(=O)CC#N,T/C,"dose: 100.0 mg/kg/injection, schedule: Q04DX009 (ip), vehicle: saline",101 % of control
same,T/C,"dose: 200.0 mg/kg/injection, schedule: Q04DX009 (ip), vehicle: saline",100 % of control
CC(=O)OCCSCCO,T/C,"dose: 25.0 mg/kg/injection, schedule: Q01DX009 (ip), vehicle: water",94 % of control
same,T/C,"dose: 50.0 mg/kg/injection, schedule: Q01DX009 (ip), vehicle: water",99 % of control
same,T/C,"dose: 100.0 mg/kg/injection, schedule: Q01DX009 (ip), vehicle: water",99 % of control
same,T/C,"dose: 200.0 mg/kg/injection, schedule: Q01DX009 (ip), vehicle: water",104 % of control
same,T/C,"dose: 400.0 mg/kg/injection, schedule: Q01DX009 (ip), vehicle: water",99 % of control
C=CC1(C)CCC2C(=CCC3C2(C)CC(O)C(O)C3(C)COC2OC(C(=O)O)C(O)C(O)C2O)C1 (stereo not drawn) (tested in a mixture with another compound),T/C,[10],103 % of control
same,T/C,[7],100 % of control
same,T/C,[8],106 % of control
same,T/C,[9],100 % of control
CC([NH-])C(=O)O.O=C(O)CN(CC(=O)O)CC(=O)O.[Co+2],T/C,"dose: 25.0 mg/kg/injection, schedule: Q01DX009 (ip), vehicle: saline",104 % of control
same,T/C,[1],113 % of control
same,T/C,[2],104 % of control and 90 % of control
O=C(O)C(Cc1cnc[nH]1)[N-]C[N-]C(Cc1cnc[nH]1)C(=O)O.[Pd+2] (stereo not drawn),T/C,"dose: 50.0 mg/kg/injection, schedule: Q01DX005 (ip), vehicle: saline",100 % of control
same,T/C,"dose: 100.0 mg/kg/injection, schedule: Q01DX005 (ip), vehicle: saline",97 % of control
same,T/C,"dose: 200.0 mg/kg/injection, schedule: Q01DX005 (ip), vehicle: saline",100 % of control
COC(=O)c1ccccc1NC(Cc1ccccc1)=NC(C)(C)C,T/C,"dose: 50.0 mg/kg/injection, schedule: Q01DX009 (ip), vehicle: saline with Tween-80",86 % of control
same,T/C,"dose: 100.0 mg/kg/injection, schedule: Q01DX009 (ip), vehicle: saline with Tween-80",99 % of control
CCCCCCCCCCCCCC[N+]1(CC)CCCC1,T/C,"dose: 6.25 mg/kg/injection, schedule: Q04DX002 (ip), vehicle: saline",119 % of control
same,T/C,"dose: 12.5 mg/kg/injection, schedule: Q04DX002 (ip), vehicle: saline",86 % of control
